In the supplement of paper PMC10307832:

Tests used:
Test in all cases: relative viability (nuclei count vs DMSO), 5 days (fraction); higher = more cells survive
Everolimus + Alpelisib = compound: CO[C@H]1C[C@@H]2CC[C@@H](C)[C@@](O)(O2)C(=O)C(=O)N2CCCC[C@H]2C(=O)O[C@H]([C@H](C)C[C@@H]2CC[C@@H](OCCO)[C@H](OC)C2)CC(=O)[C@H](C)/C=C(\C)[C@@H](O)[C@@H](OC)C(=O)[C@H](C)C[C@H](C)/C=C/C=C/C=C/1C [Everolimus] + Cc1nc(NC(=O)N2CCC[C@H]2C(N)=O)sc1-c1ccnc(C(C)(C)C(F)(F)F)c1 [Alpelisib] (partner 2 µM)
Method in brief: (§1)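 Lung cancer cell lines were seeded in 1536-well plates and dosed by pin tool the next day, with either a single drug or a fixed anchor-drug dose combined with five library-drug doses (not always all listed) spaced in √10 steps. Five days later, one step fixed the cells and stained their nuclei (final 0.05% Triton X-100, 1% formaldehyde, 1 ug/ml Hoechst), and nuclei were counted on 4× images. Relative viability is the nuclei count in treated wells divided by the count in vehicle wells, and each value is the median of duplicate plates.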

Everolimus + Linsitinib = compound: CO[C@H]1C[C@@H]2CC[C@@H](C)[C@@](O)(O2)C(=O)C(=O)N2CCCC[C@H]2C(=O)O[C@H]([C@H](C)C[C@@H]2CC[C@@H](OCCO)[C@H](OC)C2)CC(=O)[C@H](C)/C=C(\C)[C@@H](O)[C@@H](OC)C(=O)[C@H](C)C[C@H](C)/C=C/C=C/C=C/1C [Everolimus] + C[C@]1(O)C[C@@H](c2nc(-c3ccc4ccc(-c5ccccc5)nc4c3)c3c(N)nccn32)C1 [Linsitinib] (partner 1 µM)
Method in brief: as §1

Everolimus + Navitoclax = compound: CO[C@H]1C[C@@H]2CC[C@@H](C)[C@@](O)(O2)C(=O)C(=O)N2CCCC[C@H]2C(=O)O[C@H]([C@H](C)C[C@@H]2CC[C@@H](OCCO)[C@H](OC)C2)CC(=O)[C@H](C)/C=C(\C)[C@@H](O)[C@@H](OC)C(=O)[C@H](C)C[C@H](C)/C=C/C=C/C=C/1C [Everolimus] + CC1(C)CCC(c2ccc(Cl)cc2)=C(CN2CCN(c3ccc(C(=O)NS(=O)(=O)c4ccc(N[C@H](CCN5CCOCC5)CSc5ccccc5)c(S(=O)(=O)C(F)(F)F)c4)cc3)CC2)C1 [Navitoclax] (partner 0.5 µM)
Method in brief: as §1

Everolimus + Vorinostat = compound: CO[C@H]1C[C@@H]2CC[C@@H](C)[C@@](O)(O2)C(=O)C(=O)N2CCCC[C@H]2C(=O)O[C@H]([C@H](C)C[C@@H]2CC[C@@H](OCCO)[C@H](OC)C2)CC(=O)[C@H](C)/C=C(\C)[C@@H](O)[C@@H](OC)C(=O)[C@H](C)C[C@H](C)/C=C/C=C/C=C/1C [Everolimus] + O=C(CCCCCCC(=O)Nc1ccccc1)NO [Vorinostat] (partner 1 µM)
Method in brief: as §1

| Cell Line | relative viability (Everolimus + Alpelisib; first compound 0.01 µM) | relative viability (Everolimus + Alpelisib; first compound 0.03162 µM) | relative viability (Everolimus + Alpelisib; first compound 0.1 µM) | relative viability (Everolimus + Alpelisib; first compound 0.3162 µM) | relative viability (Everolimus + Alpelisib; first compound 1 µM) | relative viability (Everolimus + Linsitinib; first compound 0.01 µM) | relative viability (Everolimus + Linsitinib; first compound 0.03162 µM) | relative viability (Everolimus + Linsitinib; first compound 0.1 µM) | relative viability (Everolimus + Linsitinib; first compound 0.3162 µM) | relative viability (Everolimus + Linsitinib; first compound 1 µM) | relative viability (Everolimus + Navitoclax; first compound 0.01 µM) | relative viability (Everolimus + Navitoclax; first compound 0.03162 µM) | relative viability (Everolimus + Navitoclax; first compound 0.1 µM) | relative viability (Everolimus + Navitoclax; first compound 0.3162 µM) | relative viability (Everolimus + Navitoclax; first compound 1 µM) | relative viability (Everolimus + Vorinostat; first compound 0.01 µM) | relative viability (Everolimus + Vorinostat; first compound 0.03162 µM) | relative viability (Everolimus + Vorinostat; first compound 0.1 µM) | relative viability (Everolimus + Vorinostat; first compound 0.3162 µM) | relative viability (Everolimus + Vorinostat; first compound 1 µM) |
| --- | --- | --- | --- | --- | --- | --- | --- | --- | --- | --- | --- | --- | --- | --- | --- | --- | --- | --- | --- | --- |
| HCC-15 | 0.763 | 0.678 | 0.685 | 0.608 | 0.605 | 0.787 | 0.777 | 0.692 | 0.739 | 0.653 | 0.691 | 0.629 | 0.512 | 0.637 | 0.512 | 0.937 | 0.862 | 0.767 | 0.753 | 0.77 |
| NCI-H2405 | 0.452 | 0.475 | 0.372 | 0.444 | 0.469 | 0.515 | 0.49 | 0.463 | 0.536 | 0.536 | 0.672 | 0.63 | 0.53 | 0.662 | 0.452 | 0.696 | 0.679 | 0.652 | 0.606 | 0.75 |
| LXF-289 | 0.993 | 0.967 | 0.901 | 0.973 | 0.868 | 0.984 | 0.972 | 0.913 | 1.02 | 0.917 | 0.99 | 1.04 | 0.958 | 0.96 | 0.957 | 0.909 | 0.831 | 0.817 | 0.987 | 0.934 |
| CAL-12T | 0.378 | 0.464 | 0.266 | 0.351 | 0.46 | 0.452 | 0.56 | 0.447 | 0.616 | 0.562 | 0.438 | 0.452 | 0.35 | 0.423 | 0.498 | 0.267 | 0.29 | 0.237 | 0.321 | 0.318 |
| COR-L23 | 0.492 | 0.476 | 0.482 | 0.505 | 0.567 | 0.552 | 0.501 | 0.603 | 0.708 | 0.652 | 0.706 | 0.597 | 0.662 | 0.636 | 0.765 | 0.322 | 0.336 | 0.308 | 0.381 | 0.367 |
| NCI-H1755 | 0.646 | 0.659 | 0.653 | 0.643 | 0.611 | 0.883 | 0.717 | 0.665 | 0.727 | 0.658 | 0.75 | 0.624 | 0.599 | 0.646 | 0.513 | 0.616 | 0.599 | 0.61 | 0.568 | 0.602 |
| NCI-H1437 | 0.566 | 0.438 | 0.549 | 0.507 | 0.294 | 0.589 | 0.598 | 0.493 | 0.36 | 0.279 | 0.913 | 0.89 | 0.836 | 0.804 | 0.661 | 0.747 | 0.632 | 0.656 | 0.586 | 0.432 |
| NCI-H2085 | 0.668 | 0.616 | 0.577 | 0.622 | 0.571 | 0.735 | 0.522 | 0.519 | 0.509 | 0.484 | 0.73 | 0.811 | 0.66 | 0.83 | 0.705 | 0.636 | 0.582 | 0.497 | 0.576 | 0.541 |
| IA-LM | 0.185 | 0.334 | 0.27 | 0.149 | 0.288 | 0.296 | 0.306 | 0.243 | 0.267 | 0.282 | 0.314 | 0.317 | 0.395 | 0.389 | 0.302 | 0.815 | 0.83 | 0.425 | 0.342 | 0.352 |
| H3255 | 0.526 | 0.412 | 0.48 | 0.441 | 0.334 | 0.804 | 0.695 | 0.559 | 0.602 | 0.504 | 0.252 | 0.23 | 0.188 | 0.167 | 0.148 | 0.474 | 0.82 | 0.47 | 0.446 | 0.549 |
| LOU-NH91 | 0.64 | 0.551 | 0.543 | 0.564 | 0.52 | 0.794 | 0.644 | 0.718 | 0.585 | 0.66 | 0.53 | 0.59 | 0.473 | 0.524 | 0.496 | 0.809 | 0.653 | 0.744 | 0.727 | 0.764 |
| NCI-H3122 | 0.587 | 0.549 | 0.325 | 0.59 | 0.363 | 0.791 | 0.822 | 0.621 | 0.528 | 0.761 | 1.05 | 0.916 | 0.82 | 0.89 | 0.617 | 0.678 | 0.598 | 0.607 | 0.369 | 0.669 |
| PC-3 [JPC-3] | 0.881 | 0.828 | 0.793 | 0.789 | 0.747 | 0.869 | 0.914 | 0.785 | 0.834 | 0.866 | 0.763 | 0.676 | 0.577 | 0.664 | 0.568 | 0.693 | 0.498 | 0.54 | – | 0.566 |
| NCI-H1651 | 0.639 | 0.454 | 0.611 | 0.537 | 0.451 | 0.586 | 0.538 | 0.495 | 0.495 | 0.454 | 0.555 | 0.581 | 0.576 | 0.557 | 0.399 | 0.424 | 0.418 | 0.36 | 0.449 | 0.405 |
| NCI-H2087 | 0.796 | 0.897 | 0.839 | 0.663 | 0.657 | 0.821 | 1.09 | 0.765 | 0.788 | 0.674 | 0.888 | 0.852 | 0.888 | 0.847 | 0.69 | 0.321 | 0.5 | 0.443 | 0.46 | 0.532 |
